How the values were obtained:
[1] = tested on: H1N1 (influenza A/New Caledonia/20/99); assay: Antiviral effect on A549 cells infected with H1N1; format: cell-based, H1N1 A/New Caledonia/20/99 virus; conditions: Influenza A virus, MOI 0.1, 48 h post-infection, MUNANA neuraminidase readout
Outline: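 A549 cells dosed with test compounds over a concentration range and infected at once with clinical isolate H1N1 A/New Caledonia/20/99 (MOI 0.1) in DMEM with […] TPCK trypsin, 37 °C. At 48 h, supernatant neuraminidase activity measured with MUNANA substrate (1 h, 37 °C); 4-MU fluorescence at ex 365/em 450 nm.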

[2] = biological target: T1, CISD1 Gene Product (mitoNEET) (Homo sapiens, UniProt Q9NZ45); assay: Stability of Fe-S cluster binding of purified NEET protein (absorbance 458 nm); format: biochemical; conditions: for Residual cluster bound at end of experiment (Percentage Absorbance 458 nm at time zero): at 180 minutes, vehicle control 16%; for Residual cluster bound at end of experiment (Percentage Absorbance 458 nm at time zero) / Time (in minutes) to achieve 50% loss of bound cluster (Absorbance 458 nm): 60 μM compound; for Stabiliser of Fe—S cluster binding (time to 50% loss increased by more than 25% vs control): at the concentrations tested; for Time (in minutes) to achieve 50% loss of bound cluster (Absorbance 458 nm): pH 6, 37° C., 20 μM protein, run time 180 minutes, vehicle control 80
T1 sequence (Q9NZ45 33-108 limits assumed): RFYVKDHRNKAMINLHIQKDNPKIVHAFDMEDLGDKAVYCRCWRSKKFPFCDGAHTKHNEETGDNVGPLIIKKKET
Method: (§1) The modulator effect on the NEET proteins encoded by human CISD1, CISD2, and CISD3 genes by the compounds of the invention has been tested and is reported below. Particularly, the biochemical function of the NEET proteins is measured by the stability of Fe—S cluster binding of the purified NEET proteins.
(§2) The Fe—S cluster binding capacity of NEET proteins is known to be coordinated by four amino-acids in a stretch of 16 (three Cysteine and one Histidine). As the lability of the Fe—S cluster of NEET proteins is sensitive to the environment, cluster stability measurements are one of the measures of interactions of NEET proteins with small molecules and compounds. NEET protein/2Fe-2S cluster stability can be assessed by monitoring the decay in absorbance of its characteristic 458-nm peak (characteristic of the oxidized 2Fe-2S cluster) over time. Each NEET protein (mitoNEET, NAF-1 and Miner 2) was tested for its Fe—S binding in the absence or presence of a compound according to the invention (see table 3 below). The rate of cluster release (time in minutes to achieve 50% loss of bound Fe—S cluster) was compared for each NEET protein in the presence of one of the compounds of the invention (in a 1:3 protein:compound molar ratio) relative to each protein alone.
(§3) At pH 6, all the three NEET proteins (mitoNEET, NAF-1 and Miner 2) have a characteristic rate of loss of the bound Fe—S cluster that can be measured by the decrease of absorbance at wavelength 458 nm over time, using a spectrophotometer. Thus, Bis-Tris buffer (100 mM Bis-Tris pH6, 100 mM Nacl) was used at pH 6 to dilute either DMSO (Blank sample: Bis-Tris Buffer pH 6, 66 μM DMSO), DMSO and one of the three NEET proteins (Control sample: Bis-Tris Buffer pH 6, 66 μM DMSO, 20 μM purified NEET protein) or DMSO, one of the three NEET proteins and a compound of the invention (Test sample: Bis-Tris Buffer pH 6, 66 μM DMSO, 20 μM purified NEET protein, 60 μM compound of the invention).
(§4) A reaction mix containing DMSO diluted in the Bis-Tris Buffer with or without a compound of the invention was prepared. The purified NEET protein was the last component added to the reaction mix which was then aliquoted into 4 replicates in 96 wells plates. The absorbance at wavelength 458 nm was taken at 5 minutes intervals at 37° C. with a spectrofluorimeter. The assay run time for CISD2 gene product (NAF-1) was 500 minutes and 180 minutes for both the CISD 1 gene product (mitoNEET) and the CISD3 gene product (Miner 2).
(§5) In addition to time monitoring, residual bound Fe—S cluster to NEET protein was measured at the final point of the spectrometry assay for each Test sample and compared to the Control sample data (in parenthesis table 3). This residual binding is measured by the differential percentage between the absorbance 458 nm at time zero and the absorbance 458 nm at the end of the experiment (i.e. respectively 500 or 180 minutes as described hereabove), showing the percentage of NEET protein still able to bind Fe—S cluster.
(§6) Analysis of the absorbance enables the time for which 50% loss of bound Fe—S cluster is reached (i.e. a 50% absorbance decrease at 458 nm) for each Test sample and each Control sample (in parenthesis table 3) to be determined. The data are then compared to determine whether the compound of the invention stabilizes or destabilizes the NEET protein/Fe—S cluster binding.
(§7) Stabilisers of Fe—S cluster binding by the NEET proteins slow the release of bound Fe—S (i.e. increase the time needed to reach 50% Fe—S cluster bound loss by more than 25% for the Test sample compared to the Control sample). As illustrated by table 3, at the concentrations tested, stabilisers of CISD1 Gene Product (mitoNEET) are the compounds #9, #18, #26, #2, #1, and #42. Stabilisers of CISD2 Gene Product (NAF-1) are the compounds #2, #1, and #40. Stabilisers of CISD3 Gene Product (Miner2) are the compounds #9, #18, #26, #2, #1, and #42.

[3] = biological target: T2, CISD2 Gene Product (NAF-1) (Homo sapiens, UniProt Q8N5K1); assay: as above; format: biochemical; conditions: for Residual cluster bound at end of experiment (Percentage Absorbance 458 nm at time zero): at 500 minutes, vehicle control 3%; for Residual cluster bound at end of experiment (Percentage Absorbance 458 nm at time zero) / Time (in minutes) to achieve 50% loss of bound cluster (Absorbance 458 nm): 60 μM compound; for Time (in minutes) to achieve 50% loss of bound cluster (Absorbance 458 nm): pH 6, 37° C., 20 μM protein, run time 500 minutes, vehicle control 310; for Stabiliser of Fe—S cluster binding (time to 50% loss increased by more than 25% vs control): at the concentrations tested
T2 sequence (Q8N5K1 57-135 limits assumed): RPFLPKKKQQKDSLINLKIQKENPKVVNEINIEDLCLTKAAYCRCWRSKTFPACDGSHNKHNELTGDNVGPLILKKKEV
Method: as §1, §2, §3, §4, §5, §6, §7

[4] = biological target: T3, CISD3 Gene Product (Miner2) (Homo sapiens, UniProt P0C7P0); assay: as above; format: biochemical; conditions: for Residual cluster bound at end of experiment (Percentage Absorbance 458 nm at time zero): CISD3 gene product, at 180 minutes, vehicle control (DMSO) 11%; for Residual cluster bound at end of experiment (Percentage Absorbance 458 nm at time zero) / Time (in minutes) to achieve 50% loss of bound cluster (Absorbance 458 nm): 60 μM compound; for Stabiliser of Fe—S cluster binding (time to 50% loss increased by more than 25% vs control) / Time (in minutes) to achieve 50% loss of bound cluster (Absorbance 458 nm): Miner2; for Stabiliser of Fe—S cluster binding (time to 50% loss increased by more than 25% vs control): at the concentrations tested; for Time (in minutes) to achieve 50% loss of bound cluster (Absorbance 458 nm): pH 6, 37° C., 20 μM protein, run time 180 minutes, vehicle control 60
T3 sequence (P0C7P0 15-127): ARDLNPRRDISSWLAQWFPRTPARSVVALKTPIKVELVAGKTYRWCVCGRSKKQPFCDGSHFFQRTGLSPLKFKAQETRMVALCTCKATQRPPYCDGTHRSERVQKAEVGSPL
Method: as §1, §2, §3, §4, §5, §6, §7

NFκB = NFκB reporter assay, TNFα stimulation of A549 reporter cells; format: cell-based; conditions: Homo sapiens; A549 NFκB-NanoLuciferase reporter cells, 4 ng/ml TNFα, 6 hours
Source text: Compounds of the present invention have been tested for their capacity to inhibit NFκB.
The NFκB reporter construct was made by cloning 5 NFκB responsive elements upstream of a NanoLuciferase reporter gene flanked by AAVS1 genomic sequences.
NFκB Responsive element fused with NanoLuciferase and SV40 late Poly(A) signal was amplified from pNL3.2-NFκB-Nluc (Promega) using NFκB-NLUC-F and NFκB-NLUC-R primers and inserted by Infusion (TaKaRa) in AAVS1 SA-2A-puro-pA donor plasmid (Hockemeyer et al, Nat Biotechnol. 2009, 27, 851-7) digested by Sall. pCRISPR AAVS1-T2 expressing a guide RNA (gRNA) to target human AAVS1 (T2 target sequence) was constructed by inserting AAVS1-T2A hybridized primers in pLentiCRISPR v2-blast (Sanjana et al, Nat Methods. 2014, 11, 783-4) digested by Bsmb1.
A549 cells were transfected by the plasmids and puromycine selected for 5 days (1 μg mL-1). Then clones were obtained by limiting dilution and selected to maximize TNFα dependent NFkB-NanoLuciferase induction.
The reporter cells were seeded on a 96-well plate for overnight with DMEM including 10% FBS. Test compounds were added at varying concentrations. The cells then were treated with 4 ng/ml TNFα (Peprotech, ref E251) in DMEM+10% FBS. NanoGlo luciferase assay (Promega) was carried out 6 hours later. Luminescence was measured using a Spark 20M spectrofluorimeter (Tecan). Values were normalized to the luminescence measured in untreated cells.

Row | SMILES | IC50 [1] | Residual cluster bound at end of experiment (Percentage Absorbance 458 nm at time zero) [2] | Stabiliser of Fe—S cluster binding (time to 50% loss increased by more than 25% vs control) [2] | Time (in minutes) to achieve 50% loss of bound cluster (Absorbance 458 nm) [2] | Residual cluster bound at end of experiment (Percentage Absorbance 458 nm at time zero) [3] | Time (in minutes) to achieve 50% loss of bound cluster (Absorbance 458 nm) [3] | Residual cluster bound at end of experiment (Percentage Absorbance 458 nm at time zero) [4] | Stabiliser of Fe—S cluster binding (time to 50% loss increased by more than 25% vs control) [4] | Time (in minutes) to achieve 50% loss of bound cluster (Absorbance 458 nm) [4] | EC50 (NFκB) | Stabiliser of Fe—S cluster binding (time to 50% loss increased by more than 25% vs control) [3]
1 | O=C(Nc1sc(Cl)c(C2CCCC2)c1C(=O)O)c1ccccc1 [Compound #18, 2-Benzamido-5-chloro-4-cyclopentyl-thiophene-3-carboxylic acid] | 64.8 nM | 52% (16%) | stabilisers | during 180 minutes | 38% (3%) | 240 (310) minutes | 69% (11%) | Stabilisers | during 180 minutes | 1100 nM | –
2 | O=C(Nc1scc(C2CCCCC2)c1C(=O)O)c1ccccc1 [Compound #26, 2-Benzamido-4-cyclohexyl-thiophene-3-carboxylic acid] | 745 nM | 36% (16%) | stabilisers | 105 (80) minutes | 18% (3%) | 355 (310) minutes | 52% (11%) | Stabilisers | during 180 minutes | – | –
3 | CC1(c2csc(NC(=O)c3ccc(NCC4CCOCC4)cc3)c2C(=O)O)CC1 [Compound #111, 4-(1-Methylcyclopropyl)-2-[[4-(tetrahydropyran-4-ylmethylamino)benzoyl]amino]thiophene-3-carboxylic acid] | 200 nM | – | – | – | – | – | – | – | – | 2200 nM | –
4 | Cc1c(-c2ccccc2)sc(NC(=O)c2ccccc2)c1C(=O)O [Compound #40, 2-Benzamido-4-methyl-5-phenyl-thiophene-3-carboxylic acid] | 2470 nM | 6% (16%) | – | 95 (80) minutes | 9% (3%) | 390 (310) minutes | 24% (11%) | – | 70 (60) minutes | – | Stabilisers
5 | O=C(Nc1scc(-c2ccc(Cl)cc2)c1C(=O)O)c1ccccc1 [Compound #1, 2-Benzamido-4-(4-chlorophenyl)thiophene-3-carboxylic acid] | 298 nM | 29% (16%) | stabilisers | 100 (80) minutes | 13% (3%) | 425 (310) minutes | 47% (11%) | Stabilisers | 85 (60) minutes | – | Stabilisers
6 | Cc1ccccc1C(=O)Nc1scc(-c2ccccc2)c1C(=O)O [Compound #42, 2-[(2-Methylbenzoyl)amino]-4-phenyl-thiophene-3-carboxylic acid] | 5870 nM | 24% (16%) | stabilisers | 100 (80) minutes | 2% (3%) | 330 (310) minutes | 37% (11%) | Stabilisers | 75 (60) minutes | – | –
7 | O=C(Nc1scc(C2CC3CCC2C3)c1C(=O)O)c1ccccc1 (stereo not shown) [Compound #9, 2-Benzamido-4-norbornan-2-yl-thiophene-3-carboxylic acid] | 210 nM | 20% (16%) | stabilisers | 100 (80) minutes | 17% (3%) | 370 (310) minutes | 57% (11%) | Stabilisers | during 180 minutes | 1100 nM | –

From patent US11840527B2, “Non-fused thiophene derivatives and their uses” (ENYO PHARMA, priority 2018, dated 2023)
